What all share (format): in vivo
Assay [1] deals with Lolium perenne (LOLPE). The experiment in a line: Test Example 1 pre-emergence herbicidal activity. The note with it: Lolium perenne, 480 h, rate 250 g/ha, evaluated 20 days later, read-out: Pre-emergence activity LOLPE (100=total damage to plant; 0=no damage to plant). On the procedure:
(§1) Monocotyledonous and dicotyledonous test plants were sown in standard soil in pots. After cultivation for one day (pre-emergence) or after 10 days cultivation (post-emergence) under controlled conditions in a glasshouse, the plants were sprayed with an aqueous spray solution derived from the formulation of the technical active ingredient in 0.6 ml acetone and 45 ml formulation solution containing 10.6% Emulsogen EL (Registry number 61791-12-6), 42.2% N-methylpyrrolidone, 42.2% dipropylene glycol monomethyl ether (Registry number 34590-94-8) and 0.2% X-77 (Registry number 11097-66-8). The test plants were then grown in a greenhouse under optimum conditions until, 15 days later for post-emergence and 20 days for pre-emergence, the test was evaluated (100=total damage to plant; 0=no damage to plant).
(§2) Alopecurus myosuroides (ALOMY), Avena fatua (AVEFA), Lolium perenne (LOLPE), Setaria faberi (SETFA), Digitaria sanguinalis (DIGSA), Echinochloa crus-galli (ECHCG)

For assay [2], the system named is Echinochloa crus-galli (ECHCG). The experiment in a line: Test Example 1 pre-emergence herbicidal activity. Conditions: Echinochloa crus-galli, 480 h, rate 250 g/ha, evaluated 20 days later, read-out: Pre-emergence activity ECHCG (100=total damage to plant; 0=no damage to plant). On the procedure:
as §1, §2

In assay [3] the test system is Digitaria sanguinalis (DIGSA). Description: Test Example 1 pre-emergence herbicidal activity. The note with it: Digitaria sanguinalis, 480 h, rate 250 g/ha, evaluated 20 days later, read-out: Pre-emergence activity DIGSA (100=total damage to plant; 0=no damage to plant). As to the method: as §1, §2
In assay [4] the test system is Avena fatua (AVEFA). The experiment in a line: Test Example 1 pre-emergence herbicidal activity. The note with it: Avena fatua, 480 h, rate 250 g/ha, evaluated 20 days later, read-out: Pre-emergence activity AVEFA (100=total damage to plant; 0=no damage to plant). As to the method:
as §1, §2

Assay [5] relates to Alopecurus myosuroides (ALOMY). Description: Test Example 1 pre-emergence herbicidal activity. The note with it: Alopecurus myosuroides, 480 h, rate 250 g/ha, evaluated 20 days later, read-out: Pre-emergence activity ALOMY (100=total damage to plant; 0=no damage to plant). On the procedure: as §1, §2
The subject of assay [6] is Setaria faberi (SETFA). Description: Test Example 1 pre-emergence herbicidal activity. Conditions: Setaria faberi, 480 h, rate 250 g/ha, evaluated 20 days later, read-out: Pre-emergence activity SETFA (100=total damage to plant; 0=no damage to plant). As to the method: as §1, §2
For assay [7], the system named is Lolium perenne (LOLPE). The experiment in a line: Test Example 1 post-emergence herbicidal activity. The note with it: 360 h, rate 125 g/ha, evaluated 15 days later, read-out: Post-emergence activity LOLPE (100=total damage to plant; 0=no damage to plant). On the procedure:
as §1, §2

Assay [8] concerns Echinochloa crus-galli (ECHCG). The experiment in a line: Test Example 1 post-emergence herbicidal activity. The note with it: 360 h, rate 125 g/ha, evaluated 15 days later, read-out: Post-emergence activity ECHCG (100=total damage to plant; 0=no damage to plant). On the procedure:
as §1, §2

The test system of assay [9] is Digitaria sanguinalis (DIGSA). The experiment in a line: Test Example 1 post-emergence herbicidal activity. The note with it: 360 h, rate 125 g/ha, evaluated 15 days later, read-out: Post-emergence activity DIGSA (100=total damage to plant; 0=no damage to plant). As to the method:
as §1, §2

For assay [10], the system named is Avena fatua (AVEFA). Description: Test Example 1 post-emergence herbicidal activity. The note with it: 360 h, rate 125 g/ha, evaluated 15 days later, read-out: Post-emergence activity AVEFA (100=total damage to plant; 0=no damage to plant). As to the method: as §1, §2
For assay [11], the system named is Alopecurus myosuroides (ALOMY). The experiment in a line: Test Example 1 post-emergence herbicidal activity. The note with it: 360 h, rate 125 g/ha, evaluated 15 days later, read-out: Post-emergence activity ALOMY (100=total damage to plant; 0=no damage to plant). On the procedure:
as §1, §2

Assay [12] concerns Setaria faberi (SETFA). Description: Test Example 1 post-emergence herbicidal activity. Conditions: 360 h, rate 125 g/ha, evaluated 15 days later, read-out: Post-emergence activity SETFA (100=total damage to plant; 0=no damage to plant). On the procedure: as §1, §2

SMILES strings stand for the structures.

Turning to `CCC(C)C(=O)OC1=C(c2c(C)cc(C)cc2C)C(=O)[C@@H]2[C@H]1[C@H]1CC[C@@H]2O1` (stereo partly drawn) [Example P9], the pest or weed control at 250 g/ha with Lolium perenne (LOLPE) [1] was determined as 100%; in assay [2], 80%; in assay [3], 90%; in the assay with Avena fatua (AVEFA) [4], 100%; in [5], 100%; in the assay on Setaria faberi (SETFA) [6], 80%. Further, the pest or weed control at 125 g/ha in the assay with Lolium perenne (LOLPE) [7] was found to be 100%; in assay [8], 90%; in [9], 80%; with Avena fatua (AVEFA) [10] it was 90%; in assay [11], 100%; in the assay on Setaria faberi (SETFA) [12] it was 80%.

On to `CCc1cc(C)cc(CC)c1C1=C(OC(=O)CCCCCCC(=O)OC)[C@H]2[C@@H](C1=O)[C@@H]1CC[C@H]2O1` [Example P16], for which the pest or weed control at 250 g/ha in the assay with Lolium perenne (LOLPE) [1] turned out to be 90%; in assay [2], 100%; in assay [3], 100%; in the assay with Avena fatua (AVEFA) [4] it was 90%; in [5], 100%; with Setaria faberi (SETFA) [6], 100%. In addition, the pest or weed control at 125 g/ha with Lolium perenne (LOLPE) [7] amounted to 100%; in [8] it was 100%; in [9] it was 100%; in the assay with Avena fatua (AVEFA) [10] it was 90%; in assay [11] it was 100%; with Setaria faberi (SETFA) [12], 100%.

For `CCc1cc(C)cc(CC)c1C1=C(O)[C@@H]2[C@@H]3O[C@@H](C[C@H]3c3cc([N+](=O)[O-])ccc3C)[C@@H]2C1=O` (racemic) [Example T184], the pest or weed control at 250 g/ha with Lolium perenne (LOLPE) [1] was determined as 70%; in assay [2], 60%; in assay [3], 70%; with Avena fatua (AVEFA) [4] it was 60%; in assay [5], 30%; in the assay with Setaria faberi (SETFA) [6], 90%. Further, the pest or weed control at 125 g/ha in the assay on Lolium perenne (LOLPE) [7] amounted to 10%; in assay [8], 100%; in assay [9], 20%; in the assay with Avena fatua (AVEFA) [10], 0%; in assay [11] it was 10%; with Setaria faberi (SETFA) [12] it was 50%.

Turning to `Cc1cc(C)c(C2=C(OC(=O)OC(C)C)[C@H]3[C@@H](C2=O)[C@@H]2CC[C@H]3O2)c(C)c1` (racemic) [Example P4], the pest or weed control at 250 g/ha was determined as 100% with Lolium perenne (LOLPE) [1]; 90% in assay [2]; 90% in assay [3]; 100% with Avena fatua (AVEFA) [4]; 100% in [5]; 70% in the assay with Setaria faberi (SETFA) [6]. Further, the pest or weed control at 125 g/ha with Lolium perenne (LOLPE) [7] stood at 100%; in assay [8], 100%; in assay [9], 80%; in the assay with Avena fatua (AVEFA) [10], 90%; in assay [11], 100%; in the assay on Setaria faberi (SETFA) [12] it was 90%.

As to `COC[C@]12CC[C@H](O1)[C@@H]1C(=O)C(c3c(C)cc(C)cc3C)=C(OC(=O)C3CC3)[C@@H]12` (single isomer, unassigned) [Example P30], the pest or weed control at 250 g/ha with Lolium perenne (LOLPE) [1] came out at 90%; in assay [2] it was 90%; in assay [3], 80%; with Avena fatua (AVEFA) [4], 80%; in [5] it was 80%; in the assay on Setaria faberi (SETFA) [6] it was 80%. The pest or weed control at 125 g/ha in the assay with Lolium perenne (LOLPE) [7] stood at 70%; in assay [8], 100%; in assay [9], 90%; in assay [11], 80%; in the assay on Setaria faberi (SETFA) [12] it was 80%.

On to `CSC[C@]12CC[C@H](O1)[C@@H]1C(=O)C(c3c(C)cc(C)cc3C)=C(O)[C@@H]12` [Example T53], for which the pest or weed control at 250 g/ha with Lolium perenne (LOLPE) [1] worked out at 10%; in assay [2], 0%; in assay [3], 10%; in the assay on Avena fatua (AVEFA) [4], 20%; in assay [5] it was 10%; with Setaria faberi (SETFA) [6] it was 10%.

For the molecule `CCc1cc(C)cc(CC)c1C1=C(O)[C@@H]2[C@@H]3O[C@@H](C[C@H]3c3cccc(Cl)c3)[C@@H]2C1=O` [Example T148], the pest or weed control at 250 g/ha in the assay on Lolium perenne (LOLPE) [1] was 70%; in [2], 80%; in assay [3], 70%; in the assay with Avena fatua (AVEFA) [4], 50%; in assay [5] it was 60%; with Setaria faberi (SETFA) [6] it was 60%.

On to `Cc1cc(C)c(C2=C(OC(=O)C(C)(C)C)[C@H]3[C@@H](C2=O)[C@@H]2CC[C@H]3O2)c(C)c1` (racemic) [Example P33, (1RS,2SR,6RS,7SR)-5-oxo-4-(2,4,6-trimethylphenyl)-10-oxatricyclo[5.2.1.0^2,6]dec-3-en-3-yl 2,2-dimethylpropionate], for which the pest or weed control at 250 g/ha was 100% in the assay with Lolium perenne (LOLPE) [1]; 80% in [3]; 70% in the assay on Avena fatua (AVEFA) [4]; 90% in assay [5]; 80% with Setaria faberi (SETFA) [6]. In addition, the pest or weed control at 125 g/ha in the assay with Lolium perenne (LOLPE) [7] is 80%; in assay [8], 90%; in assay [9] it was 70%; in the assay with Avena fatua (AVEFA) [10] it was 70%; in [11], 80%; in the assay on Setaria faberi (SETFA) [12], 70%.

For `CCc1cc(C)cc(CC)c1C1=C(OC(=O)OCC(C)C)[C@H]2[C@@H](C1=O)[C@@H]1CC[C@H]2O1` (racemic) [Example P24], the pest or weed control at 250 g/ha was determined as 100% with Lolium perenne (LOLPE) [1]; 100% in assay [2]; 100% in assay [3]; 90% with Avena fatua (AVEFA) [4]; 90% in assay [5]; 100% in the assay on Setaria faberi (SETFA) [6]. The pest or weed control at 125 g/ha (in [8]; in assay [11]; in the assay on Setaria faberi (SETFA) [12]) was 100% each time.

As to `CCc1cc(C)cc(CC)c1C1=C(O)[C@@H]2[C@@H]3O[C@@H](C[C@H]3c3cccc(F)c3C#N)[C@@H]2C1=O` [Example T157], the pest or weed control at 250 g/ha came to 70% in the assay on Lolium perenne (LOLPE) [1]; 50% in [2]; 0% in assay [3]; 30% in assay [5]; 0% in the assay on Setaria faberi (SETFA) [6]. Besides, the pest or weed control at 125 g/ha was determined as 40% in the assay on Lolium perenne (LOLPE) [7]; 100% in [8]; 60% in [9]; 60% in the assay on Avena fatua (AVEFA) [10]; 60% in assay [11]; 60% in the assay on Setaria faberi (SETFA) [12].
